Melting point data for 89 compounds are collected here from a melting point compilation (Tetko et al.; mined from patent text by program, amines drawn as free bases though some values may be those of a salt).

SMILES strings stand for the structures.

`CC(C)(C)c1cc(C(=O)c2cccs2)cc2c1OCC2(C)C` had a melting point of 103 to 105 °C.
Regarding `CN(C(=O)C1=NN(c2ccc(Cl)cc2)C(c2ccc(Cl)cc2)C1)c1ccc(C(F)(F)F)cc1` (centres undefined), the melting point is 181 to 183 °C.
The same measure for `N=C(Nc1ccc(CCNCc2cccc(F)c2)cc1)c1cccs1`: 130 to 131 °C.
The same measure for `C#CCNc1ccc(C(C)=O)cc1`: 97 to 100 °C; for `CNC(=O)ON=C1COCCS1`: 105 to 106 °C.
The same measure for `COc1cc(C)c2c(=O)c3c(OC)cccc3oc2c1OC`: 158 °C; for `C/C(=C\CC1SC(=O)NC1=O)c1cccc(OCc2nc(-c3ccc(OC(F)(F)F)cc3)oc2C)c1` (centres undefined): 50 to 51 °C; for `CCCSc1ncc(CO)n1Cc1ccccc1Cl`: 98 to 101 °C.
`Cc1c(C)c2c(c(C)c1N)CC(C)(CN1CCN(C(=O)c3ccc([N+](=O)[O-])cc3)CC1)O2` (centres undefined): the melting point lay within 154 to 158 °C.
Compound `O=C(NC(Cc1c[nH]c2ccccc12)C(=O)OCc1ccccc1C(F)(F)F)c1ccccc1` (centres undefined) returned a melting point of 117 °C.
To `O=C1C(Cl)=C(c2ccccc2)C(=O)N1Nc1ccc(F)cc1` belongs 115 to 117 °C; to `O=C(N[C@H](Cc1cccc(OC(F)(F)C(F)F)c1)[C@@H](O)c1ccc(Oc2ccccc2)cc1)c1cccc2c1C=CCCC2` (racemic), 95 to 96 °C; to `Cc1c(Br)ccc(F)c1N`, 49 to 50 °C.
Regarding `O=C1Nc2ccccc2C1C(=O)C(F)(F)F` (centres undefined), the melting point stood at 184 °C.
Turning to `O=C1NCN2c3ccc([N+](=O)[O-])cc3Sc3cccc1c32`, the melting point is 205 to 208 °C.
The same measure for `Cc1ccc2c(c1)CC1(CCC(=O)CC1)C2`: 68 to 70 °C; for `CC(C)Cn1cnc2c(N)nc3ccc(-c4ccccc4)cc3c21`: 203 to 204 °C; for `O=C1C(I)=CC2COC1O2` (centres undefined): 66 to 67 °C.
To `CC(=O)Nc1ccc(S(=O)(=O)NCC(O)(Cn2cncn2)c2ccc(Cl)cc2Cl)cc1` (centres undefined) belongs 232 to 233 °C; to `CN(C)C(=S)SC(C[N+](=O)[O-])c1cc([N+](=O)[O-])ccc1Cl` (centres undefined), 120 to 121 °C.
The compound `Fc1ccc(-c2ncn(C3CCNCC3)c2-c2ccnc(Oc3ccc(OCc4ccccc4)cc3)n2)cc1` yielded a melting point of 178 to 179 °C.
The same measure for `CCOc1cc2c(c3c1OC(C)(C)C3)C(c1cccc(NC(=O)CSC)c1)=NC(C)(C)C2`: 162 to 163 °C; for `CCCCSc1c2sc3ccccc3nc-2ccc1=O`: 72 °C.
To `O=C(OCc1ccccc1)n1ccc2c(O)cccc21` belongs 118 to 120 °C; to `COC(=O)[C@H](CCCCNC(=O)OCc1ccccc1)n1c2ccccc2c2ccccc21`, 97 to 99 °C; to `CCCn1nc2c(N)nc3ccccc3c2c1CC(C)(C)OCCS(C)(=O)=O`, 197 to 200 °C.
To `Cc1sc(-c2cccs2)nc1O` belongs 152 to 153 °C.
`Cn1ncnc1COc1nn2c(-c3ccccc3F)nncc2c1-c1cccc(-c2cccnc2)c1` displayed a melting point of 157 to 163 °C.
The same measure for `O=C1Nc2ccccc2N(C(=O)CN2CCCCC2CN2CCCC2)c2cscc21` (centres undefined): 205 to 207 °C; for `CCOC(=O)NC(=NCCCc1c[nH]cn1)NCCSCc1ccccc1`: 91 to 92 °C.
To `CCCCCCCCCC(=O)Nc1ccc2c(c1)C(=O)N(CCN1CCC(c3noc4cc(F)ccc34)CC1)C2=O` belongs 159 to 160 °C.
The same measure for `Fc1ccc(-c2ncn(CC3CC3)c2-c2ccncc2)cc1`: 162 °C; for `COC(=N[N+](=O)[O-])NCc1cnc(Cl)s1`: 133 to 135 °C.
In turn, `COC(=O)c1cc(=O)c2oc3ccccc3c(=O)c2n1C` had a melting point of 290 to 293 °C.
The same measure for `CCOCCn1c(COc2cccc(CO)c2)nc2ccccc21`: 105 to 107 °C; for `CCCCCCCCc1c(CC)nc2nc(Cl)nn2c1N`: 202 to 203 °C.
The same measure for `CCCCc1nc2ccccc2n1Cc1ccc(-c2ccccc2-c2nnn[nH]2)cc1`: 230 to 232 °C; for `O=C(NCC1(c2ccccc2)CCCCC1)Nc1ccccc1`: 162 to 164 °C; for `COc1ccc(-c2oncc2CO)cc1`: 57 to 58 °C.
The same measure for `CC1(C)C(N)CN1c1c(F)cc2c(=O)c(C(=O)O)cn(C3CC3)c2c1F` (centres undefined): 214 to 216 °C; for `O=C1c2ccccc2CCC1C(=O)C(F)(F)F` (centres undefined): 48 to 49 °C.
With `Cc1cc(NC(=O)c2cc(Cl)cc(C)n2)ccn1`, the melting point was 162 °C.
The same measure for `CCS(=O)(=O)CCC(=O)NNC(=O)N1Cc2ccccc2Oc2ccc(O)cc21`: 191 to 194 °C; for `O=C(O)c1c(F)c(Cl)c(O)c(Cl)c1F`: 102 to 105 °C; for `COc1ccc(C(=O)SC[C@@H](C)C(=O)N2CCC[C@H]2C(=O)O)cc1`: 140 to 141 °C.
On to `O=C(Nc1ccc2[nH]ncc2c1)c1ccccc1NCC1CCOCC1`, for which the melting point turned out to be 174 °C.
To `COc1cc(OC)nc(Cc2ccccc2N)n1` belongs 82 to 84 °C.
To `COc1ccc(C(=O)CC2CCN(CCn3c(=O)[nH]c4ccccc43)CC2)cc1` belongs 156 °C; to `Cc1c[nH]c(-c2c(Cl)cc(C(F)(F)F)cc2Cl)n1`, 211 to 212 °C.
The same measure for `Nc1cc(S(N)(=O)=O)ccc1S(=O)(=O)CCCO`: 136 to 138 °C; for `CC(C)(C)N=NC(C)(C)C#N`: 17 °C; for `COc1ccc2c(n1)C1(CO2)C(=O)N(Cc2ccc(C(F)(F)F)o2)c2ccccc21` (centres undefined): 145 to 147 °C.
As for `CSC1C(=O)Nc2c(Oc3ccccc3N)cccc21` (centres undefined), the melting point was in the range of 168 to 170 °C.
The same measure for `O=C(O)c1c(-c2ccccc2)c2ccccc2n1Cc1ccc(OCc2ccccc2)cc1`: 193 to 194 °C; for `CC1(C)NC(=O)N(CC(CCS(=O)(=O)c2ccc(-c3ccc(C(F)(F)F)cc3)cc2)N(O)C=O)C1=O` (centres undefined): 125 °C.
To `CCCCCCCCCCCCCCCCCCOc1cc(C(N)=O)cc([N+](=O)[O-])c1` belongs 117 to 120 °C; to `COC(=O)Cc1ccc(C#C[Si](C)(C)C)cc1`, 55 to 58 °C; to `O=C(C[C@H](NC(=O)C(F)(F)F)C(=O)O)c1ccc(F)cc1F`, 82.4 to 84 °C.
To `C=CCOc1cnc(SC)nc1` belongs 41 to 42 °C; to `Cc1ccc(-c2c(NS(=O)(=O)c3ccc(C(C)(C)C)cc3)nc(NCCOC3CCCCO3)nc2OCCOc2ncc(Br)cn2)cc1` (centres undefined), 65 to 69 °C.
In turn, `CCCCCC(=O)OCC(CCn1cnc2c(=O)[nH]c(N)nc21)COC(=O)CCCCC` returned a melting point of 198 °C.
In turn, `CCOc1ccc([N+](=O)[O-])c(NC2Cc3ccccc3C2)c1` yielded a melting point of 151 °C.
Consider `CCCn1c(=O)c2[nH]c(/C=C/c3ccc(OC)c(Br)c3)nc2n(CCC)c1=O`, for which the melting point lay within 280 to 281 °C.
Regarding `CSC(=N)NC(c1ccccc1)c1ccc(C)cc1` (centres undefined), the melting point is 130 to 132 °C.
The compound `O=C(O)C1C=Nc2c(ccc3cc(C(=O)N4CCc5ccccc5C4)cnc23)C1=O` (centres undefined) returned a melting point of 171 to 182 °C.
The same measure for `CC(C)C(c1ccc(CC(N)=O)cc1)n1ccnc1` (centres undefined): 244 °C; for `CN(C)c1ccc(NC(=O)c2cc3cc(C(F)(F)F)ccc3n2Cc2cccc(F)c2)cn1`: 192 to 193 °C.
The same measure for `CC(C)c1cc(C(=O)Nc2cccc(C(=O)O)c2)oc1C(C)C`: 244 to 245 °C.
To `Cc1nnc(-c2cc3c(OC[C@@H](O)CN4CCC(c5ccc6ccccc6c5)CC4)cccc3[nH]2)o1` belongs 215 to 217 °C; to `CC(C)N=CCCC1(C(N)=O)c2ccccc2-c2ccccc21`, 149 to 155 °C; to `CCOc1ccc(N(C)C)cc1-c1ncc(C(=O)O)c(=O)[nH]1`, 187 to 196 °C.
`Oc1ccc(Sc2cnnc3ccccc23)cc1` returned a melting point of 238 °C.
Turning to `COc1cc(C(F)(F)F)ccc1C#N`, the melting point lay in the range of 59 to 61 °C.
The same measure for `CCOC(=O)c1cn(Cc2ccccc2)nc1OCc1ccc(OCc2nc(-c3ccco3)oc2C)c(O)c1`: 134 to 135 °C; for `CCOC(=O)c1nc2cc(Br)ccn2n1`: 158 to 160 °C.
`COC(=O)c1ccc2[nH]c(S)nc2n1` registered a melting point of 233 to 234 °C.
To `CC(=O)O[C@@H]1CC(c2ccccc2)(c2ccccc2)[C@@H]2CN(Cc3ccccc3)C[C@@H]2C1=O` (racemic) belongs under 40 °C; to `CN1CCC2(CC1)OC(c1ccc(Cl)cc1)C1CCCCN12` (centres undefined), 122 to 124 °C.
With `Cc1cc(-c2noc(C)c2-c2ccc(S(C)(=O)=O)c(F)c2)ccc1-c1cscn1`, the melting point turned out to be 99.5 °C.
In turn, `Cc1c(F)c(F)cc2c(=O)c(C(=O)O)cn(-c3nc(N)c(F)cc3F)c12` registered a melting point of 274 to 277 °C.
The same measure for `CN(C)CCNC(=O)N1CCN(c2ccc([N+](=O)[O-])cc2)CC1`: 115 to 120 °C.
The same measure for `CCn1c(C)nc2c(C(=O)OC)c(C(=O)OC)ccc21`: 127 to 128 °C.
To `COc1cccc(C(C)n2nc(C(=O)O)c3c2-c2ccc(OCc4cncnc4)cc2CC3)c1` (centres undefined) belongs 200 to 201 °C.
Compound `CN(Cc1cc2c(=O)c(C(=O)NCc3ccc(Cl)cc3)cn(C)c2o1)CC(O)c1ccccc1` (centres undefined) returned a melting point of 118 to 121 °C.
As to `O=C(O)CCCc1cc2cc(Cl)ccc2n1S(=O)(=O)c1ccc2ccccc2c1`, the melting point came out at 166 °C.
The same measure for `CN(CC(=O)O)C(=O)CCc1cccc(-c2nc(=O)c3ccccc3s2)n1`: 194 to 195 °C; for `CC1(CN2CCN(c3cccccc3=O)CC2)NC(=O)NC1=O` (centres undefined): 231 to 232 °C.
In the case of `O=C(O)Cc1cn(C(=O)c2cccc(C(F)(F)F)c2)c2cc(Cl)ccc12`, the melting point lay within 194 to 196 °C.
Regarding `COCc1ccc(Cl)c(C2(C)C(=O)N(Cc3ccc(OC)cc3OC)c3ccc(Cl)cc32)c1` (centres undefined), the melting point came out at 122 °C.

The term melting point denotes the temperature of the solid-liquid transition.
